# Patent US6511967B1, “Use of an internalizing transferrin receptor to image transgene expression” (The General Hospital Corporation, priority 1999, dated 2003)
# Tests used:
# [1] = system: Gli36EGFR cells; experiment: In vitro MR imaging of Gli36EGFR cells infected with PETZ amplicon and labeled with Tf-SPDP-CLIO (FIG. 10B); format: cell-based; conditions: MOI 20 or 4; 2 hours at 37° C.; especially at MOI of 20
# Experimental: In another similar experiment, in vitro MR imaging was used to analyze viral transfer of the transferrin receptor and labeling with Tf-SPDP-CLIO. Gli36EGFR cells were uninfected or infected with an HSV-based amplicon (PETZ) driving expression of an altered form of the transferrin receptor (Multiplicity of Infection (MOI) of 20 or 4). After 24 hours, the cells were incubated with the indicated concentrations of Tf-SPDP-CLIO for 2 hours at 37° C. Following incubation, cells were harvested, washed, and pelleted for imaging at room temperature. As a control for non-specific uptake of unconjugated CLIO, infected and uninfected cells were also incubated in a similar fashion with 50 μg of CLIO alone. Concentration numbers along the top of the figure refer to the amount of iron added to the sample in the form of Tf-SPDP-CLIO. The ratio of Tf conjugated to CLIO for Tf-SPDP-CLIO was 4:1. […] The MR imaging conditions were as follows: SE (Spin Echo); TR 3000 ms, multiecho with TE 25, 50, 75, 100 ms. Slice thickness 1.9 mm, field of view 8 cm, matrix 256×256, 2 NEX, scan time 26:12 minutes.
# [2] = system: Gli36EGFR tumors infected with PETZ; experiment: In vivo MR imaging of gene transfer in bilateral Gli36EGFR brain tumors (FIG. 9); design: species or system nude mice; conditions: 24 hours after tail-vein injection, 1 mg/kg; 3-D gradient echo
# Description: In another example of imaging of in vivo gene transfer, Gli36EGFR cells were implanted into nude mice 8 days prior to imaging to generate bilateral frontal tumors. On day 6 after implantation, tumors on the right were infected with the HSV-based amplicon PETZ (FIG. 8), which drives expression of an altered form of the TfR. Forty-eight hours after virus administration animals were imaged without contrast agent (T1-weighted pre-contrast scan; FIG. 9A) and then injected with Tf-SPDP-CLIO.
# All contrast agents were injected by tail-vein administration (1 mg/kg Tf-SPDP-CLIO). Scans: (9A) T1 SE 300/16, FOV 8 cm, 256×256, 1.9 thk/0.2 spc; (9B) T1 SE [Omniscan], and (9C) T2 3D GR 38/20/5°, FOV 10 cm, 256×256, 0.5 thk/0.0 spc. [Tf-SPDP-CLIO.
# [3] = system: ETR+ and ETR− tumors; experiment: Biodistribution of labeled reporter complex in excised ETR+ and ETR− tumors; format: in vivo, nude mice
# Experimental: A similar 4-fold difference was also observed when In labeled Tf was injected into these animals. The same assay can be used to analyze the biodistribution of other new reporter complexes.
# First, rat 9L gliosarcoma cells (Brain Tumor Research Center, San Francisco, Calif.) were grown in Dulbecco's modified Eagle's medium (DMEM, Cellgro, Mediatech, Washington, D.C.) containing 10% fetal bovine serum (FBS, Cellgro).
# Then, ETR− and ETR+ tumors were grown in nude mice by injecting […] cells of either cell line into the left and right flanks of animals (n=12). Each animal was implanted with both tumors in each flank so that it could serve as its own control. Animals were used for histology, MR, and/or biodistribution studies 10 to 14 days after tumor inoculation. The growth characteristics of the tumors were similar and by day 12 all animals had developed tumors 200-400 mg in size.
# [4] = system: Gli36#6; experiment: In vitro MR imaging of Gli36#6 cells infected with PETZ amplicon and incubated with Tf-MION (FIG. 10A); format: cell-based; conditions: 10 μg Tf-MION
# Experimental: In this figure, concentration labels refer to the amount of iron molecules added to the sample. […] Following infection, the cells were allowed to recover and were washed, pelleted, and imaged at room temperature as follows: SE (Spin Echo): TR 3000 ms, multiecho with TE 25, 50, 75, 100ms. Slice thickness 1.9 mm, field of view 8 cm, matrix 256×256, 2 NEX, scan time 26:12 minutes.
# [5] = system: ETR+ and ETR− tumors; experiment: In vivo MR imaging of mice with ETR+ and ETR− tumors after intravenous Tf-MION; design: species or system nude mice; conditions: then tumoral signal intensity returned to baseline
# Experimental: MR imaging was performed in live animals using a 1.5 T superconducting magnet (Signa 5.0; GE Medical Systems, Milwaukee, Wis.) using a 5-inch surface coil. […] Slice thickness was 3 mm. The field of view (FOV) was 10 cm^2, using a 256×256 imaging matrix and 2-4 acquisition averages. Signal intensity (SI) measurements were obtained in regions of interest (ROI) from tumor and background. To display MION-Tf induced changes, R2 maps of tumors calculated from spin echo images were superimposed on anatomic maps (T1 weighted images). Semiquantitation was done by calibrating R2 maps to known concentrations of radiolabeled superparagmagnetic probes.
# [6] = system: Gli36EGFR cells
# Experimental: Gli36EGFR cells were plated at approximately 10% confluency. Cells were infected the next day (MOI=5) with either one of three amplicons: EZ-TFR (FIG. 12), which was a control having a transferrin receptor gene, but lacking a p450 gene; EZ-p450 (FIG. 11), which was a second control with a p450 gene but no transferrin receptor gene; or PETZ (FIG. 8), which includes both the p450 and transferrin receptor genes. Following a 24 hour incubation with the viral amplicons, cyclophosphamide (CPA) was added in varying concentrations as indicated in the graph of FIG. 13. CPA is a chemotherapeutic compound that is metabolized by the expression product of the p450 gene (cyp2B1 in the rat). Cleavage of CPA yields an active metabolite, which is toxic to the cancer cells. Cell number was measured 72 hours later using a Coulter Counter. The data are presented in the graph in FIG. 13 as a percentage of control, where control cells are virally infected cells in the absence of CPA.
# [7] = system: 9L3.9 cells; experiment: In vitro MR imaging of 9L3.9 cell pellets incubated with reporter complexes (FIG. 7); format: cell-based, rat; conditions: spin echo MR imaging
# Experimental: Concentration labels in FIG. 7 refer to the amount of iron (reporter complex) added to the sample.
# Incubations of the reporter complexes with the cells were carried out at 37° C. The cells were washed and pelleted, and pellets were imaged in microfuge test tubes at room temperature as follows: SE (Spin Echo): TR 3000 ms, multi-echo with TE 25, 50, 75, 100 ms. Slice thickness was 1.9 mm, field of view 8 cm, matrix 256×256, 2 NEX, scan time 26:12 minutes. As shown at the top row in the figure, the Tf-SPDP-CLIO contrast agent provided a change in measured signal at far lower concentrations of the reporter complex.
compound,measurement,setting,value
Tf-SPDP-CLIO: holo-Tf conjugated to CLIO using the crosslinking agent N-succinimidyl 3-(2-pyridyldithio) propionate (SPDP),change in MRI following infection with amplicons expressing the altered transferrin receptor,[1],dramatic change in MRI at lower concentrations of iron
same,appearance of PETZ-infected tumor in MR image,[2],dark mass
In labeled Tf: transferrin labeled with In (radioisotope) [reference compound],"difference in tumor accumulation, ETR+ vs ETR− tumors",[3]; ETR+ vs ETR− tumors,~4 fold
Tf-MION: human holo-transferrin covalently conjugated to dextran coated monocrystalline iron oxide nanoparticles by the periodate method,change of MR signal of cell pellet due to TfR expression after PETZ infection,[4],dramatically altered the MR signal
same,persistence of MR signal intensity differences of tumors,[5],approximately 7 days
same,mean accumulation in ETR+ tumors,[3]; 24 hours after IV administration,3.2 % ID/g
same,mean accumulation in ETR− tumors,"[3]; 24 hours after IV administration, same animal",0.8 % ID/g
"O=P1(N(CCCl)CCCl)NCCCO1 (stereo not drawn) [CPA, cyclophosphamide]","cells alive, percent of control, no amplicon","[6]; 10^3 μM CPA, 72 hours",about 80%
same,"cells alive, percent of control, EZ-TFR amplicon","[6]; 10^3 μM CPA, 72 hours, MOI=5",about 80%
same,"cells alive, percent of control, PETZ amplicon","[6]; 10^3 μM CPA, 72 hours, MOI=5",less than 10%
same,CPA concentration from which cell killing is significantly increased,[6]; PETZ and EZ-p450 amplicons,10^1 μM
Tf-CLIO: holo-Tf conjugated to cross-linked iron oxide nanoparticles (CLIO) using the periodate method,contrast compared with the other reporter complexes,[7],"better than the Tf-MION, but not as good as the Tf-SPDP-CLIO"
